How the values were obtained:
corn = assay: Test B pre/postemergence corn; assay type: in vivo, Zea mays
Summary of the method: (§1)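 Herbicidal effect was estimated by eye on a ten-point control scale after plants spent twelve to sixteen days in a greenhouse following soil or foliar treatment. Foliar sprays targeted plants at one to four leaves; all doses were formulated in a non-phytotoxic solvent with surfactant.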

purple nutsedge = assay: Test B pre/postemergence purple nutsedge; assay type: in vivo, Cyperus rotundus
Summary of the method: as §1

wheat = assay: Test B pre/postemergence wheat; assay type: in vivo, Triticum aestivum
Summary of the method: as §1

crabgrass = assay: Test B pre/postemergence crabgrass; assay type: in vivo, Digitaria sanguinalis
Summary of the method: as §1

surinam grass = assay: Test B pre/postemergence surinam grass; assay type: in vivo, Brachiaria decumbens
Summary of the method: as §1

bedstraw = assay: Test B pre/postemergence bedstraw; assay type: in vivo, Galium aparine; details: Rate 250 g/ha, Postemergence; scale of 0 to 10 where 0 is no effect and 10 is complete control
Summary of the method: as §1

blackgrass = assay: Test B pre/postemergence blackgrass; assay type: in vivo, Alopecurus myosuroides
Summary of the method: as §1

soybean = assay: Test B pre/postemergence soybean; assay type: in vivo, Glycine max
Summary of the method: as §1

wild oat = assay: Test B pre/postemergence wild oat; assay type: in vivo, Avena fatua
Summary of the method: as §1

velvetleaf = assay: Test B pre/postemergence velvetleaf; assay type: in vivo, Abutilon theophrasti
Summary of the method: as §1

sugar beet = assay: Test B pre/postemergence sugar beet; assay type: in vivo, Beta vulgaris
Summary of the method: as §1

rape = assay: Test B pre/postemergence rape; assay type: in vivo, Brassica napus
Summary of the method: as §1

cocklebur = assay: Test B pre/postemergence cocklebur; assay type: in vivo, Xanthium strumarium
Summary of the method: as §1

pigweed = assay: Test B pre/postemergence pigweed; assay type: in vivo, Amaranthus retroflexus
Summary of the method: as §1

giant foxtail = assay: Test B pre/postemergence giant foxtail; assay type: in vivo, Setaria faberii
Summary of the method: as §1

morningglory = assay: Test B pre/postemergence morningglory; assay type: in vivo, Ipomoea hederacea
Summary of the method: as §1

[1] = Postemergence, Rate 62 g/ha, scale of 0 to 10, 0 is no effect, 10 is complete control
[2] = Postemergence, Rate 125 g/ha, scale 0 to 10, 0 is no effect, 10 is complete control
[3] = Postemergence, Rate 500 g/ha, scale 0 to 10, 0 is no effect, 10 is complete control
[4] = Preemergence, Rate 62 g/ha, scale of 0 to 10 where 0 is no effect and 10 is complete control
[5] = Preemergence, Rate 125 g/ha, scale 0 to 10, 0 is no effect, 10 is complete control
[6] = Preemergence, Rate 500 g/ha, scale of 0 to 10 where 0 is no effect and 10 is complete control
[7] = Rate 250 g/ha, Postemergence, scale of 0 to 10 where 0 is no effect and 10 is complete control

## CCC(=O)Cn1c(=O)on(C(=O)N(c2ccc(F)cc2F)C(C)C)c1=O [Compound 524]
corn; [1]
  Corn plant response rating: 0
corn; [2]
  Corn plant response rating: 2
corn; [3]
  Plant response rating, Corn: 5
corn; [4]
  Plant response rating, Corn: 0
corn; [5]
  Corn plant response rating: 0
corn; Preemergence, Rate 250 g/ha
  Corn plant response rating (0 to 10 scale): 7
corn; [6]
  Corn plant response rating: 9
corn; [7]
  Plant response rating, Corn: 3
Purple nutsedge; [3]
  Plant response rating, Nutsedge: 0
Purple nutsedge; [4]
  Plant response rating, Nutsedge: 0
Purple nutsedge; [5]
  Nutsedge plant response rating: 0
Purple nutsedge; Preemergence, Rate 250 g/ha
  Nutsedge plant response rating (0 to 10 scale): 0
Purple nutsedge; [6]
  Nutsedge plant response rating: 4
wheat; [1]
  Wheat plant response rating: 0
wheat; [2]
  Wheat plant response rating: 0
wheat; [3]
  Plant response rating, Wheat: 5
wheat; [4]
  Plant response rating, Wheat: 0
wheat; [5]
  Wheat plant response rating: 5
wheat; Preemergence, Rate 250 g/ha
  Wheat plant response rating (0 to 10 scale): 7
wheat; [7]
  Plant response rating, Wheat: 0
crabgrass; [1]
  Crabgrass plant response rating: 3
crabgrass; [2]
  Crabgrass plant response rating: 8
crabgrass; [3]
  Plant response rating, Crabgrass: 9
crabgrass; [4]
  Plant response rating, Crabgrass: 9
crabgrass; [5]
  Crabgrass plant response rating: 10
crabgrass; Preemergence, Rate 250 g/ha
  Crabgrass plant response rating (0 to 10 scale): 9
crabgrass; [6]
  Crabgrass plant response rating: 10
crabgrass; [7]
  Plant response rating, Crabgrass: 8
Surinam grass; [1]
  B. signalgrass plant response rating: 0
Surinam grass; [2]
  B. signalgrass plant response rating: 0
Surinam grass; [3]
  Plant response rating, B. signalgrass: 9
Surinam grass; [4]
  Plant response rating, B. signalgrass: 0
Surinam grass; [5]
  B. signalgrass plant response rating: 0
Surinam grass; Preemergence, Rate 250 g/ha
  B. signalgrass plant response rating (0 to 10 scale, 0 is no effect, 10 is complete control): 2
Surinam grass; [7]
  Plant response rating, B. signalgrass: 2
bedstraw
  Plant response rating, Bedstraw: 9
blackgrass; [1]
  Blackgrass plant response rating: 0
blackgrass; [2]
  Blackgrass plant response rating: 2
blackgrass; [3]
  Plant response rating, Blackgrass: 8
blackgrass; [4]
  Plant response rating, Blackgrass: 4
blackgrass; [5]
  Blackgrass plant response rating: 4
blackgrass; Preemergence, Rate 250 g/ha
  Blackgrass plant response rating (0 to 10 scale): 4
blackgrass; [7]
  Plant response rating, Blackgrass: 9
soybean; [1]
  Soybean plant response rating: 3
soybean; [3]
  Plant response rating, Soybean: 4
soybean; [4]
  Plant response rating, Soybean: 0
soybean; [5]
  Soybean plant response rating: 0
soybean; Preemergence, Rate 250 g/ha
  Soybean plant response rating (0 to 10 scale): 0
soybean; [6]
  Soybean plant response rating: 0
soybean; [7]
  Plant response rating, Soybean: 3
Wild oat; [1]
  Wild oats plant response rating: 0
Wild oat; [2]
  Wild oats plant response rating: 0
Wild oat; [3]
  Plant response rating, Wild oats: 5
Wild oat; [4]
  Plant response rating, Wild oats: 7
Wild oat; [5]
  Wild oats plant response rating: 9
Wild oat; Preemergence, Rate 250 g/ha
  Wild oats plant response rating (0 to 10 scale): 8
Wild oat; [7]
  Plant response rating, Wild oats: 0
velvetleaf; [1]
  Velvetleaf plant response rating: 0
velvetleaf; [2]
  Velvetleaf plant response rating: 0
velvetleaf; [3]
  Plant response rating, Velvetleaf: 6
velvetleaf; [4]
  Plant response rating, Velvetleaf: 0
velvetleaf; [5]
  Velvetleaf plant response rating: 3
velvetleaf; Preemergence, Rate 250 g/ha
  Velvetleaf plant response rating (0 to 10 scale): 4
velvetleaf; [6]
  Velvetleaf plant response rating: 4
velvetleaf; [7]
  Plant response rating, Velvetleaf: 5
Sugar beet; [1]
  Sugarbeets plant response rating: 0
Sugar beet; [2]
  Sugarbeets plant response rating: 0
Sugar beet; [3]
  Plant response rating, Sugarbeets: 0
Sugar beet; [4]
  Plant response rating, Sugarbeets: 0
Sugar beet; [5]
  Sugarbeets plant response rating: 3
Sugar beet; Preemergence, Rate 250 g/ha
  Sugarbeets plant response rating (0 to 10 scale): 6
Sugar beet; [7]
  Plant response rating, Sugarbeets: 0
rape; [1]
  Rape plant response rating: 0
rape; [2]
  Rape plant response rating: 0
rape; [3]
  Plant response rating, Rape: 3
rape; [4]
  Plant response rating, Rape: 2
rape; [5]
  Rape plant response rating: 2
rape; Preemergence, Rate 250 g/ha
  Rape plant response rating (0 to 10 scale): 7
rape; [7]
  Plant response rating, Rape: 0
cocklebur; [1]
  Cocklebur plant response rating: 0
cocklebur; [2]
  Cocklebur plant response rating: 0
cocklebur; [3]
  Plant response rating, Cocklebur: 3
cocklebur; [4]
  Plant response rating, Cocklebur: 0
cocklebur; [5]
  Cocklebur plant response rating: 0
cocklebur; Preemergence, Rate 250 g/ha
  Cocklebur plant response rating (0 to 10 scale): 0
cocklebur; [6]
  Cocklebur plant response rating: 2
cocklebur; [7]
  Plant response rating, Cocklebur: 0
pigweed; [1]
  Redroot pigweed plant response rating: 0
pigweed; [2]
  Redroot pigweed plant response rating: 0
pigweed; [3]
  Plant response rating, Redroot pigweed: 0
pigweed; [4]
  Plant response rating, Redroot pigweed: 8
pigweed; [5]
  Redroot pigweed plant response rating: 8
pigweed; Preemergence, Rate 250 g/ha
  Redroot pigweed plant response rating (0 to 10 scale): 8
pigweed; [7]
  Plant response rating, Redroot pigweed: 0
Giant foxtail; [1]
  Giant foxtail plant response rating: 4
Giant foxtail; [2]
  Giant foxtail plant response rating: 8
Giant foxtail; [3]
  Plant response rating, Giant foxtail: 9
Giant foxtail; [4]
  Plant response rating, Giant foxtail: 9
Giant foxtail; [5]
  Giant foxtail plant response rating: 9
Giant foxtail; Preemergence, Rate 250 g/ha
  Giant foxtail plant response rating (0 to 10 scale): 9
Giant foxtail; [6]
  Giant foxtail plant response rating: 10
Giant foxtail; [7]
  Plant response rating, Giant foxtail: 8
morningglory; [1]
  Morningglory plant response rating: 0
morningglory; [2]
  Morningglory plant response rating: 2
morningglory; [3]
  Plant response rating, Morningglory: 2
morningglory; [4]
  Plant response rating, Morningglory: 0
morningglory; [5]
  Morningglory plant response rating: 0
morningglory; Preemergence, Rate 250 g/ha
  Morningglory plant response rating (0 to 10 scale): 2
morningglory; [6]
  Morningglory plant response rating: 2
morningglory; [7]
  Plant response rating, Morningglory: 2

From patent publication US6737383B1, “Herbicidal oxadiazolidines” (priority 1999, dated 2004)
